Patent publication US4529593A, “Use of gallium salts to treat disorders of calcium homeostasis” (Sloan-Kettering Institute for Cancer Research, priority 1984, dated 1985)

What was measured:
fetal rat bones = test: 45-Ca++ release (bone resorption) from explants of fetal rat bones stimulated by PTH or lymphokine (OAF); type: cell-based; settings: for 45-Ca++ release after stimulation by PTH or lymphokine (dose dependence): 48 hrs preincubation; for 45-Ca++ release expt'l / 45-Ca++ release control (E/C): control 1.00 ± .06; for 45-Ca++ release, gallium alone: without added PTH or lymphokine, vs control bones
Description: The effects of gallium nitrate on bone resorption in vitro were studied using explants of fetal rat bones (Bockman, R. S. and Repo, M. A., J Exp Med 154:529, 1981). Pregnant rats were injected with 0.2-0.4 mCi of 45-CaC12 on the 18th day of gestation. After 2 days of bone mineralization in utero, the radii and ulnae of fetal rats were explanted and placed on stainless steel rafts in BGJ media. Calcium releases from bone was stimulated by the addition of bovine PTH (2.0 microM, final concentration)or a lymphokine (OAF) preparation (10% of final volume). Gallium nitrate was added to the culture media at final concentration of 1, 5 and 10 mcg/ml simultaneously with--and 18 or 48 hours prior to--the addition of the bone-resorbing factors. After 48 hours of exposure to lymphokine or PTH, calcium release was determined by counting the supernatant media in a liquid scintillation counter. Data were expressed as the ratio of calcium release in counts per minute (cpm) of the experimental bone (treated or untreated with gallium nitrate and a resorbing factor) to cpm release by a paired control bone (treated or untreated with gallium nitrate) [cpm experimental/cpm control=E/C] Forty-nine bones were used to establish control values; 4-22 bones were used to obtain each of the experimental points. […]

explanted bones = test: PGE2 release from explanted fetal rat bones; type: cell-based
[1] = tested on: bone cells (particularly osteoclasts); test: histology of cultured rat bones (toxicity to bone cells); type: cell-based
Description: Samples of cultured rat bones used in experiments previously described herein were fixed, decalcified and stained with hematoxylin and eosin. Histologic sections were examined by light microscopy.

[2] = resorption of devitalized bone particles from treated rats; settings: particles from treated rats vs controls
Description: Devitalized bone particles (i.e. bones containing only mineral and matrix without any cellular component) were studied.

calcium metabolism = test: metabolic study of patients receiving gallium nitrate (calcium homeostasis); type: in vivo
Description: (§1) As with most anticancer drugs, gallium can potentially cause serious toxicity. The most serious side-effect being kidney damage. […] Furthermore, the anti bone-resorptive effects of gallium nitrate are achieved with less than 25-50% of the anticancer dose. Thus the method should retain safety and efficacy for prolonged periods of time.
Experimental Results: Studies of calcium homeostasis require an assessment of multiple factors including dietary intake, excretion of calcium into urine and stool, and analysis of calcium mobilization from body stores (chiefly bone). Four patients who participated in a careful study of the effects of gallium nitrate upon calcium metabolism were thus assessed. Patients were hospitalized and received a diet of defined calcium, sodium, and fluid intake. Measurements of calcium excretion into urine and stool (along with multiple other laboratory tests) were made daily during a 6-day baseline period and during a subsequent treatment period using gallium nitrate. The drug was administered as a continuous infusion at a dose of 300 mg/sq m/day for durations ranging from 4-7 days.

[3] = tested on: cancer-related hypercalcemia; test: treatment of cancer-related hypercalcemia with gallium nitrate; type: in vivo, patients; settings: for Serum calcium, Post-Treatment: 100 mg/sq m/d × 5 d; for Total Serum Calcium, Post-Treatment: 200 mg/sq m/d × 5-7 d
Description: Summary: In the initial study, gallium nitrate was used for the treatment of 10 patients with cancer-related hypercalcemia. The daily dose of drug was 200 mg/sq m administered as a continuous infusion for durations ranging from 5-7 days. The diagnoses of this patient population and the change in total serum calcium concentration in response to this therapy are presented in Table 4a.
The subsequent increase of their disease was not accompanied by an increase in serum calcium which indicates a persistent control of the metabolic problem despite lack of control of the underlying cancer. All other patients who received the drug manifested progressive cancer despite control of the hypercalcemia. […] In a subsequent study, we further reduced the daily dose of gallium nitrate to 100 mg/sq m administered for 5 days. At a lower dose, 5 of 8 patients were normalized (Table 4b). These preliminary clinical results reflect our preclinical studies previously detailed, namely that there exists a distinct dose-response relation to the anti-calcium effect (Warrell, R. P. Jr, Bockman, R. S. et al, J. Clin. Invest. 73:1487 (1984 )).

kidney = test: clinical toxicity of gallium (kidney damage, long-term infusion); type: in vivo, patients; settings: printed 22+ months
Description: as §1

animal and human tumors = settings: certain animal and human tumors; Warrell 1983, Adamson 1975; cited from earlier work
[4] = intravenous infusion, clinical dose; Kelsen et al 1980; cited from earlier work
[5] = 48 h preincubation, 1, 5 and 10 mcg/ml
[6] = 4 patients, continuous infusion 300 mg/sq m/day, 4-7 days

For O=[N+]([O-])[O-].O=[N+]([O-])[O-].O=[N+]([O-])[O-].[Ga+3] [gallium nitrate], the “45-Ca++ release after stimulation by PTH or lymphokine (dose dependence)” value (fetal rat bones; 1 mcg/ml) was “no significant change”, the “45-Ca++ release after stimulation by PTH or lymphokine (dose dependence)” value (fetal rat bones; 5 and 10 mcg/ml, P less than 0.025) was “significant and dose-related reductions” and the “45-Ca++ release (time dependence)” value (fetal rat bones; 10 mcg/ml simultaneously with (time 0) or 18 hrs preceding PTH or lymphokine) was “the reduction was not statistically significant”. For the same molecule, the “45-Ca++ release” value (fetal rat bones; [5]) was “dose dependent decrease”, the “45-Ca++ release expt'l / 45-Ca++ release control (E/C)” value (fetal rat bones; PTH-stimulated, gallium 1 mcg/ml, 48 h preincubation, 0 gallium: 1.21 ± 0.15) was 1.24 and the “45-Ca++ release expt'l / 45-Ca++ release control (E/C)” value (fetal rat bones; PTH-stimulated, gallium 5 mcg/ml, 48 h preincubation, 0 gallium: 1.21 ± 0.15) was 1.08. For the same molecule, the “45-Ca++ release expt'l / 45-Ca++ release control (E/C)” value (fetal rat bones; PTH-stimulated, gallium 10 mcg/ml, 48 h preincubation, 0 gallium: 1.21 ± 0.15) was 0.99, the “45-Ca++ release expt'l / 45-Ca++ release control (E/C)” value (fetal rat bones; lymphokine-stimulated, gallium 1 mcg/ml, 48 h preincubation, 0 gallium: 1.59 ± .1) was 1.54 ± .16 and the “45-Ca++ release expt'l / 45-Ca++ release control (E/C)” value (fetal rat bones; lymphokine-stimulated, gallium 5 mcg/ml, 48 h preincubation, 0 gallium: 1.59 ± .1) was 1.21 ± .04. The “45-Ca++ release expt'l / 45-Ca++ release control (E/C)” value (fetal rat bones; lymphokine-stimulated, gallium 10 mcg/ml, 48 h preincubation, 0 gallium: 1.59 ± .1) was 1.23 ± .04, the “lymphokine-induced 45-Ca++ release (time dependence)” value (fetal rat bones; pre-incubation 48 hours preceding lymphokine, 10 mcg/ml) was “highly significant reduction” and the “calcium release induced by PTH and by factor similar to OAF” value (fetal rat bones; summary, inhibition time- and dose-dependent) was “inhibits calcium release induced by both of these substances”. For the same molecule, the “45-Ca++ release, gallium alone” value (fetal rat bones) was “No increase in bone calcium release”, the “45-Ca++ release, gallium alone” value (fetal rat bones; listed as gallium) was “did not have any effect on 45-Ca++ release” and the “PGE2 release from explanted bones” value (explanted bones; 10 mcg/ml, 24-48 h, vs non-treated bones) was “no change in PGE2 over control”. The PGE2 release (explanted bones; [5]) was “no significant change in PGE2 release”, the PGE2 (explanted bones; PTH, gallium 1 mcg/ml, 48 h preincubation, 0 gallium: 1.4, control 1.2) was 2.2 ng/bone and the PGE2 (explanted bones; PTH, gallium 5 mcg/ml, 48 h preincubation, 0 gallium: 1.4, control 1.2) was 1.3 ng/bone. The PGE2 (explanted bones; PTH, gallium 10 mcg/ml, 48 h preincubation, 0 gallium: 1.4, control 1.2) was 3.9 ng/bone, the “PGE2 release of gallium treated bones on exposure to lymphokine, but not PTH” value (explanted bones; gallium treated bones exposed to lymphokine) was “significant increase in PGE2 release” and the PGE2 (explanted bones; lymphokine, gallium 1 mcg/ml, 48 h preincubation, 0 gallium: 17.1, control 2.0) was 17.4 ng/bone. The PGE2 (explanted bones; lymphokine, gallium 5 mcg/ml, 48 h preincubation, 0 gallium: 17.1, control 2.0) was 16.7 ng/bone, the PGE2 (explanted bones; lymphokine, gallium 10 mcg/ml, 48 h preincubation, 0 gallium: 17.1, control 2.0) was 15.1 ng/bone and the “lethal toxicity to bone cells” value ([1]; pharmacologic concentrations) was “do not cause lethal toxicity to bone cells”. The “cellular components (histology)” value ([1]; pharmacologic concentrations, 72 hrs, compared with mithramycin-treated bones) was “normal cellular components”, the bone cell morphology ([1]; relative to untreated control bones, 72 hrs) was “no differences in bone cell morphology” and the “susceptibility of devitalized bone particles to resorption” value [2] was “significantly less susceptible to resorption than controls”. For the same molecule, the “calcium excretion relative to baseline” value (calcium metabolism; [6]) was “no significant increase in calcium excretion”, the “total serum calcium concentration” value (calcium metabolism; [6]) was “reduced by the gallium infusion” and the “dose for anti bone-resorptive effects as share of the anticancer dose” value (calcium metabolism; of the anticancer dose) was 25-50%. The urinary calcium excretion (calcium metabolism; patients receiving gallium nitrate) was “decreased urinary calcium excretion”, the calcium balance (calcium metabolism; patients while receiving the drug) was “remained in positive calcium balance” and the patients normalized ([3]; 100 mg/sq m for 5 days) was 5 of 8. The “Serum calcium, Post-Treatment” value ([3]; Patient 1, Breast, pre-treatment 13.9) was 11.3 mg/dL, the “Serum calcium, Post-Treatment” value ([3]; Patient 2, Anus, pre-treatment 12.7) was 6.3 mg/dL and the “Serum calcium, Post-Treatment” value ([3]; Patient 3, Kidney, pre-treatment 14.3) was 12.0 mg/dL. For the same molecule, the “Serum calcium, Post-Treatment” value ([3]; Patient 4, Breast, pre-treatment 14.5) was 8.7 mg/dL, the “Serum calcium, Post-Treatment” value ([3]; Patient 5, Pancreas, pre-treatment 14.6) was 10.0 mg/dL and the “Serum calcium, Post-Treatment” value ([3]; Patient 6, Myeloma, pre-treatment 15.0) was 13.7 mg/dL. The “Serum calcium, Post-Treatment” value ([3]; Patient 7, Lung, pre-treatment 13.0) was 10.8 mg/dL, the “Serum calcium, Post-Treatment” value ([3]; Patient 8, Breast, pre-treatment 17.0) was 9.0 mg/dL and the “response (serum calcium concentration)” value ([3]; 200 mg/sq m/d continuous infusion 5-7 days, 10 patients) was “all patients responded to this treatment by a reduction in serum calcium concentration to normal (and frequently sub-normal) values”. For the same molecule, the “Total Serum Calcium, Post-Treatment” value ([3]; Patient 1, Breast, pre-treatment 13.8) was 8.9 mg/dL, the “Total Serum Calcium, Post-Treatment” value ([3]; Patient 2, Breast, pre-treatment 15.2) was 8.5 mg/dL and the “Total Serum Calcium, Post-Treatment” value ([3]; Patient 3, Lymphoma, pre-treatment 15.6) was 6.6 mg/dL. The “Total Serum Calcium, Post-Treatment” value ([3]; Patient 4, Head & Neck, pre-treatment 12.3) was 8.5 mg/dL, the “Total Serum Calcium, Post-Treatment” value ([3]; Patient 5, Breast, pre-treatment 14.4) was 7.7 mg/dL and the “Total Serum Calcium, Post-Treatment” value ([3]; Patient 6, Lymphoma, pre-treatment 15.6) was 8.6 mg/dL. The “Total Serum Calcium, Post-Treatment” value ([3]; Patient 7, Lung, pre-treatment 12.5) was 7.0 mg/dL, the “Total Serum Calcium, Post-Treatment” value ([3]; Patient 8, Penis, pre-treatment 12.3) was 9.3 mg/dL and the “Total Serum Calcium, Post-Treatment” value ([3]; Patient 9, Head & Neck, pre-treatment 13.5) was 7.8 mg/dL. For the same molecule, the “Total Serum Calcium, Post-Treatment” value ([3]; Patient 10, Lung, pre-treatment 13.7) was 9.3 mg/dL, the “size of a lymphomatous mass” value ([3]; 200 mg/sq m/d, Patient 5, followed by progression and death) was “transient decrease in the size of a lymphomatous mass” and the “anti-cancer effect associated with hypocalcemic effect” value ([3]; 200 mg/sq m/d, all patients except Patient 5) was “not associated with any anti-cancer effect”. For the same molecule, the “duration of intermittent high-dose infusions without serious toxicity” value (kidney) was at least 22 months, the anticancer activity (animal and human tumors) was “modest anticancer activity” and the “steady-state plasma gallium concentration” value [4] was 0.9 to 2.0 µg/mL.
